Source: ChEMBL document CHEMBL5325470, “Design, synthesis and mechanism studies of dual EZH2/BRD4 inhibitors for cancer therapy” (Bioorg Med Chem, 2023)
Active and inactive are the calls of the source. The calls are words filed in the database; no cut-off is given here.

What was measured:
[1] = tested on: HCT-116; assay: Antiproliferative activity against human HCT-116 cells incubated for 72 hrs by MTT assay; assay type: functional, cell-based; settings: HCT-116, 72 h
[2] = tested on: MDA-MB-231; assay: Antiproliferative activity against human MDA-MB-231 cells incubated for 72 hrs by MTT assay; assay type: functional, cell-based; settings: MDA-MB-231, 72 h
[3] = tested on: BT-549; assay: Antiproliferative activity against human BT-549 cells incubated for 72 hrs by MTT assay; assay type: functional, cell-based; settings: BT-549, 72 h
[4] = tested on: A549; assay: Antiproliferative activity against human A549 cells incubated for 72 hrs by MTT assay; assay type: functional, cell-based; settings: A549, 72 h
[5] = target: Bromodomain-containing protein 4 (Homo sapiens, UniProt O60885); assay: Inhibition of BRD4 BD1 (unknown origin) incubated for 15 mins by TR-FRET method
[6] = Binding affinity to recombinant PRC2 complex (unknown origin) incubated for 3 hrs in presence of SAM; set-up: species or system Homo sapiens
[7] = tested on: HCT-116; assay: Synergistic antiproliferative activity against human HCT-116 cells at JQ1 and compound 1:1 ratio incubated for 72 hrs by MTT assay; assay type: functional, cell-based; settings: HCT-116, 72 h
[8] = tested on: MDA-MB-231; assay: Synergistic antiproliferative activity against human MDA-MB-231 cells at JQ1 and compound 1:1 ratio incubated for 72 hrs by MTT assay; assay type: functional, cell-based; settings: MDA-MB-231, 72 h
[9] = tested on: BT-549; assay: Synergistic antiproliferative activity against human BT-549 cells at JQ1 and compound 1:1 ratio incubated for 72 hrs by MTT assay; assay type: functional, cell-based; settings: BT-549, 72 h
[10] = tested on: A549; assay: Synergistic antiproliferative activity against human A549 cells at JQ1 and compound 1:1 ratio incubated for 72 hrs by MTT assay; assay type: functional, cell-based; settings: A549, 72 h
[11] = target: T1, Histone-lysine N-methyltransferase EZH2 (Homo sapiens, UniProt Q15910); assay: Inhibition of EZH2 in human HCT-116 cells assessed as decrease in H3K27ac level at 2 to 8 uM incubated for 48 hrs by Western blotting analysis; assay type: cell-based; settings: dose 2-8 µM
T1 sequence (Q15910 whole entry, looked up): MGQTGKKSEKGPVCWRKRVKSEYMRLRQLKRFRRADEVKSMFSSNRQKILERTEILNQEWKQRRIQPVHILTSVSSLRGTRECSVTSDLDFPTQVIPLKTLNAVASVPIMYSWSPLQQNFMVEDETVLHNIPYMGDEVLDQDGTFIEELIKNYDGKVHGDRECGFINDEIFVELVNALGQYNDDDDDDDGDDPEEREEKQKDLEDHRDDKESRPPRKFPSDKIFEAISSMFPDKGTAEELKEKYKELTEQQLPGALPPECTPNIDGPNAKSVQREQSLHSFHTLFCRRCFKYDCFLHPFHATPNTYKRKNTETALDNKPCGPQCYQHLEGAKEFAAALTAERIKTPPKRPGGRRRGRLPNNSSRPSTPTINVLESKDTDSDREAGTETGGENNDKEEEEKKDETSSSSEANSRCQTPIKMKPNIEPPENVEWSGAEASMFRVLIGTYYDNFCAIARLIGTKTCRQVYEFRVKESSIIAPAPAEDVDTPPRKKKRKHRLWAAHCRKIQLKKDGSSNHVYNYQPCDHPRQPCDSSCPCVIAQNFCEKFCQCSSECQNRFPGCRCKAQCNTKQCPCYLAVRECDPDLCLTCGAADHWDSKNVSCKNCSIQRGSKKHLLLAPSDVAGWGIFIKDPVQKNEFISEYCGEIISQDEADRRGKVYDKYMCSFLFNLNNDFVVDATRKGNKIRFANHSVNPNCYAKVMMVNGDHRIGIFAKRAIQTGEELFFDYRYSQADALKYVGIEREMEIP

[12] = target: T1, Histone-lysine N-methyltransferase EZH2; assay: Inhibition of EZH2 in human A549 cells assessed as decrease in H3K27ac level at 2 to 8 uM incubated for 48 hrs by Western blotting analysis; assay type: cell-based; settings: dose 2-8 µM
[13] = target: T1, Histone-lysine N-methyltransferase EZH2; assay: Inhibition of EZH2 in human MDA-MB-231 cells assessed as decrease in H3K27ac level at 2 to 8 uM incubated for 48 hrs by Western blotting analysis; assay type: cell-based; settings: dose 2-8 µM

SMILES | IC50 [1] | IC50 [2] | IC50 [3] | IC50 [4] | IC50 [5] | Kd [6] | IC50 [7] | IC50 [8] | IC50 [9] | IC50 [10] | inhibition [11] | inhibition [12] | inhibition [13]
Cc1cc(C)c(CNC(=O)c2cc(-c3ccc(CNC(=O)C[C@@H]4N=C(c5ccc(Cl)cc5)c5c(sc(C)c5C)-n5c(C)nnc54)cc3)cc3c2cnn3C(C)C)c(=O)[nH]1 | 11.5 µM | 3.14 µM | 12.2 µM | > 20 µM | 0.259 µM |  |  |  |  |  |  |  | 
Cc1cc(C)c(CNC(=O)c2cc(NCCCNC(=O)C[C@@H]3N=C(c4ccc(Cl)cc4)c4c(sc(C)c4C)-n4c(C)nnc43)cc3c2cnn3C(C)C)c(=O)[nH]1 | > 20 µM | 15.4 µM | 11.5 µM | > 20 µM | 0.206 µM |  |  |  |  |  |  |  | 
CCC(C)n1ncc2c(C(=O)NCc3c(C)cc(C)[nH]c3=O)cc(-c3ccc(N4CCN(C(=O)C[C@@H]5N=C(c6ccc(Cl)cc6)c6c(sc(C)c6C)-n6c(C)nnc65)CC4)nc3)cc21 (some centres undefined) | > 20 µM | > 20 µM | > 20 µM | > 20 µM |  |  |  |  |  |  |  |  | 
Cc1cc(C)c(CNC(=O)c2cc(NCCCCCCNC(=O)C[C@@H]3N=C(c4ccc(Cl)cc4)c4c(sc(C)c4C)-n4c(C)nnc43)cc3c2cnn3C(C)C)c(=O)[nH]1 | 1.9 µM | 3.23 µM | 4.99 µM | 9.2 µM | 0.138 µM | 0.19 µM |  |  |  |  |  |  | 
Cc1cc(C)c(CNC(=O)c2cc(N3CCC(CNC(=O)C[C@@H]4N=C(c5ccc(Cl)cc5)c5c(sc(C)c5C)-n5c(C)nnc54)CC3)cc3c2cnn3C(C)C)c(=O)[nH]1 | 5.61 µM | 2.07 µM | 3.2 µM | 8.93 µM | 0.353 µM | 0.133 µM |  |  |  |  |  |  | 
Cc1cc(C)c(CNC(=O)c2cc(-c3ccc(N4CCN(C(=O)C[C@@H]5N=C(c6ccc(Cl)cc6)c6c(sc(C)c6C)-n6c(C)nnc65)CC4)nc3)cc3c2cnn3C(C)C)c(=O)[nH]1 | 2.3 µM | > 20 µM | 3.4 µM | > 20 µM |  |  |  |  |  |  |  |  | 
CC[C@@H](C)n1cc(C)c2c(C(=O)NCc3c(C)cc(C)[nH]c3=O)cc(-c3ccc(N4CCNCC4)nc3)cc21 | 12.9 µM | 11.7 µM | 9.23 µM | 18.6 µM |  | 0.0891 µM | 1.76 µM | 2.6 µM | 2.05 µM | 4.34 µM | inactive | inactive | inactive
CCn1ncc2c(C(=O)NCc3c(C)cc(C)[nH]c3=O)cc(-c3ccc(N4CCN(C(=O)C[C@@H]5N=C(c6ccc(Cl)cc6)c6c(sc(C)c6C)-n6c(C)nnc65)CC4)nc3)cc21 | 6.68 µM | > 20 µM | 3.51 µM | > 20 µM |  |  |  |  |  |  |  |  | 
Cc1cc(C)c(CNC(=O)c2cc(-c3ccc(N4CCN(C(=O)C[C@@H]5N=C(c6ccc(Cl)cc6)c6c(sc(C)c6C)-n6c(C)nnc65)CC4)cc3)cc3c2cnn3C(C)C)c(=O)[nH]1 | 17.8 µM | > 20 µM | > 20 µM | > 20 µM |  |  |  |  |  |  |  |  | 
Cc1sc2c(c1C)C(c1ccc(Cl)cc1)=N[C@@H](CC(=O)OC(C)(C)C)c1nnc(C)n1-2 | 3.07 µM | 6.17 µM | 3.89 µM | 18.3 µM |  |  |  |  |  |  |  |  | 
Cc1cc(C)c(CNC(=O)c2cc(N3CCC4(CCN(C(=O)C[C@@H]5N=C(c6ccc(Cl)cc6)c6c(sc(C)c6C)-n6c(C)nnc65)C4)CC3)cc3c2cnn3C(C)C)c(=O)[nH]1 | 2.23 µM | 2.87 µM | 3.64 µM | 17.3 µM |  |  |  |  |  |  |  |  | 
Cc1cc(C)c(CNC(=O)c2cc(-c3ccc(NC(=O)CNC(=O)C[C@@H]4N=C(c5ccc(Cl)cc5)c5c(sc(C)c5C)-n5c(C)nnc54)cc3)cc3c2cnn3C(C)C)c(=O)[nH]1 | 2.9 µM | 1.24 µM | 10.8 µM | > 20 µM | 0.138 µM |  |  |  |  |  |  |  | 
Cc1cc(C)c(CNC(=O)c2cc(-c3ccc(NC(=O)CCNC(=O)C[C@@H]4N=C(c5ccc(Cl)cc5)c5c(sc(C)c5C)-n5c(C)nnc54)cc3)cc3c2cnn3C(C)C)c(=O)[nH]1 | > 20 µM | 6.16 µM | > 20 µM | > 20 µM | 0.124 µM | 0.464 µM |  |  |  |  |  |  | 
Cc1cc(C)c(CNC(=O)c2cc(-c3ccc(N4CCN(C(=O)C[C@@H]5N=C(c6ccc(Cl)cc6)c6c(sc(C)c6C)-n6c(C)nnc65)CC4)nc3)cc3c2cnn3C)c(=O)[nH]1 | > 20 µM | 11.8 µM | 5.13 µM | > 20 µM |  |  |  |  |  |  |  |  | 
Cc1cc(C)c(CNC(=O)c2cc(N3CCN(C(=O)C[C@@H]4N=C(c5ccc(Cl)cc5)c5c(sc(C)c5C)-n5c(C)nnc54)CC3)cc3c2cnn3C(C)C)c(=O)[nH]1 | > 20 µM | 10.9 µM | 3.87 µM | > 20 µM |  |  |  |  |  |  |  |  | 
CCCc1cc(C)[nH]c(=O)c1CNC(=O)c1cc(-c2ccc(N3CCN(C(=O)C[C@@H]4N=C(c5ccc(Cl)cc5)c5c(sc(C)c5C)-n5c(C)nnc54)CC3)nc2)cc2c1cnn2C(C)C | > 20 µM | > 20 µM | > 20 µM | > 20 µM |  |  |  |  |  |  |  |  | 
Cc1cc(C)c(CNC(=O)c2cc(NC3CCN(C(=O)C[C@@H]4N=C(c5ccc(Cl)cc5)c5c(sc(C)c5C)-n5c(C)nnc54)CC3)cc3c2cnn3C(C)C)c(=O)[nH]1 | 4.28 µM | 8.09 µM | 3.91 µM | > 20 µM |  |  |  |  |  |  |  |  | 
Cc1cc(C)c(CNC(=O)c2cc(NCC3CCN(C(=O)C[C@@H]4N=C(c5ccc(Cl)cc5)c5c(sc(C)c5C)-n5c(C)nnc54)CC3)cc3c2cnn3C(C)C)c(=O)[nH]1 | 2.18 µM | 3.11 µM | 2.12 µM | 4.58 µM |  |  |  |  |  |  |  |  | 
Cc1cc(C)c(CNC(=O)c2cc(-c3ccc(NC(=O)CCCCNC(=O)C[C@@H]4N=C(c5ccc(Cl)cc5)c5c(sc(C)c5C)-n5c(C)nnc54)cc3)cc3c2cnn3C(C)C)c(=O)[nH]1 | 6.27 µM | 2.21 µM | 10.4 µM | > 20 µM | 0.055 µM | 0.682 µM |  |  |  |  |  |  | 
Cc1cc(C)c(CNC(=O)c2cc(NCCCCNC(=O)C[C@@H]3N=C(c4ccc(Cl)cc4)c4c(sc(C)c4C)-n4c(C)nnc43)cc3c2cnn3C(C)C)c(=O)[nH]1 | 10.2 µM | 13.5 µM | 9.57 µM | > 20 µM | 0.216 µM |  |  |  |  |  |  |  | 
Cc1cc(C)c(CNC(=O)c2cc(-c3ccc(NC(=O)C[C@@H]4N=C(c5ccc(Cl)cc5)c5c(sc(C)c5C)-n5c(C)nnc54)cc3)cc3c2cnn3C(C)C)c(=O)[nH]1 | > 20 µM | > 20 µM | > 20 µM | > 20 µM | > 20 µM |  |  |  |  |  |  |  | 
Cc1cc(C)c(CNC(=O)c2cc(-c3ccc(N4CCN(C(C)C)CC4)nc3)cc3c2cnn3C(C)C)c(=O)[nH]1 | 16.9 µM | 11.7 µM | 15.1 µM | 16.1 µM |  |  | 0.92 µM | 1.1 µM | 4.73 µM | 7.48 µM |  |  | 
Cc1cc(C)c(CNC(=O)c2cc(-c3ccc(NC(=O)CCCNC(=O)C[C@@H]4N=C(c5ccc(Cl)cc5)c5c(sc(C)c5C)-n5c(C)nnc54)cc3)cc3c2cnn3C(C)C)c(=O)[nH]1 | > 20 µM | 7.54 µM | > 20 µM | > 20 µM | 0.137 µM | 0.376 µM |  |  |  |  |  |  | 
